Assay results published in US10428111B2, “Cancer targeting by anti-EGFR peptides and applications thereof” (priority 2015, dated 2019).
Where two headings read alike, the source gives them in different places.

Tests used:
[1] = test system: TUBO breast carcinoma tumor; experiment: Chemotherapy study in tumor-bearing mice; conditions: for CR (complete regression) / TFS (tumor free survivor): number of animals of n = 4-5; for TGD (Tumor growth delay): versus dextrose 5% control
Description: Initially, on day 0, female BALB/c mice aged 4-6 weeks were given subcutaneous injections of TUBO tumor cells (5×10^5 cells per mouse) in the right flank. On day 11, post-tumoring mice with palpable tumor received 0.2 mL via a single tail vein injection of either dextrose 5% solution as negative control or doxorubicin encapsulated in liposomes (15 mg/kg). Mice were weighed and tumor sizes were monitored during the experimental period. The tumor volume was estimated by measuring three orthogonal diameters (a, b, and c) with calipers; the volume was calculated as (a×b×c)×0.5 mm^3. Tumors that were just palpable were defined as 1 mm^3. To survival study, the mice were monitored for up to 120 days post-tumoring or until one of the following conditions for euthanasia was met: (1) their body weight dropped below 20% of their initial mass; (2) their tumor was greater than 2.0 cm across in any dimension; (3) they became lethargic or sick and unable to feed; or (4) they were found dead. The time to reach the endpoint (TTE) for each mouse was calculated from the equation of the line obtained by exponential regression of the tumor growth curve. Subsequently, the percent of tumor growth delay (% TGD) were calculated based on the difference between the mean TTE of treatment group (T) and theme an TTE of the control group (C) (% TGD=[(T−C)/C]×100). […] In a partial regression response, the tumor volume is less than or equal to 50% of its day 1 volume for three consecutive measurements during the course of the study, and greater than or equal to 13.5 mm^3 for one or more of these three measurements. In a complete regression response, the tumor volume is less than 13.5 mm^3 for three consecutive measurements during the course of the study. An animal with a complete regression response at the end of the study was additionally classified as a tumor-free survivor.
The investigation to get the above-mentioned results took place in female BALB/c mice earing TUBO breast carcinoma tumor after administration of a single dose of 15 mg/kg liposome loaded by doxorubicin (DOX) or dextrose 5% on day 11 after tumor inoculation.

[2] = Bio-distribution study (DOX in plasma, tumor and tissues); format: in vivo, BALB/c mice; conditions: 15 mg/kg as DOX; after 3 hours
Description: Two weeks after tumor inoculation, when the tumors were approximately 5 mm wide, mice (3 per group) were injected via the tail vain with either 15 mg/kg of doxorubicin as Caelyx® or targeted liposomes. Control mice received 200 μL of dextrose 5%. Blood samples were collected via retro orbital bleeding (approx. 0.5 mL) 3, 6, and 12 hours after the dosing. After 24 hours, the group was sacrificed for tissue collection. Blood samples were collected by heart puncture, and the whole tumor, kidneys, spleen, heart, lungs as well as a portion of liver and muscle were dissected, weighted and placed in a 2 mL Polypropylene Microvials containing 1 mL of acidified isopropanol and zirconia bead sand homogenized by Mini-Beadbeater-1. The blood was allowed to coagulate at 4° C. and then centrifuged for 10 min at 14,000 rpm. Then, serum was collected and an adequate volume was diluted in 1 mL acidified isopropanol. The homogenized tissue samples and the sera were stored overnight at 4° C. to extract the drug. The samples were then centrifuged and the supernatant was assayed for DOX concentration spectrofluorimetrically (Ex:470 nm, Em:590 nm). The calibration curve was prepared using serial dilutions of Doxil the tissue and sera extracts of the control mice. […]

[3] = test system: TUBO (HER2-overexpressing cells); experiment: MTT cytotoxicity study; format: cell-based, mice; conditions: then 48 hours, mean ± SD, n = 3
Description: (§1) The anti-proliferative effects of liposomal preparations containing DOX were assessed using MTT assay. SK-BR-3, TUBO, and MDA-MB-231 cells were seeded at 7000, 10,000, 2500 cells/well in 96 well plates. After an overnight incubation, the medium was replaced with FCS free medium containing 1:2 serial dilutions of liposomal DOX or free DOX. After 3 hours and 6 hours' incubation times at 37° C., cells were washed with pre-warmed complete culture media and re-incubated further for 48 hours at 37° C. in their complete culture medium. Then, the medium was replaced with 100 μL of freshly prepared MTT (10% v/v, 5 mg/mL) and FCS free culture medium. Finally, after 4 hours of incubation at 37° C., the absorbance at 545 nm was recorded. Relative cell death (R) was calculated as follows: R=1−[(Atest−Ablank)/(Acontrol−Ablank)] Equation (1)
(§2) In the above Equation (1), Atest is the absorbance values of the cells treated with the test solutions and Acontrol is the absorbance values of the culture medium (negative control). Ablank is the absorbance of MTT solution added in cell free wells. The IC50 was then calculated using CalcuSyn version 2 software (BIOSOFT, UK).

[4] = test system: MDA-MB-231 (HER2-Low expressing cells); experiment: MTT cytotoxicity study; format: cell-based; conditions: then 48 hours, mean ± SD, n = 3
Description: as §1, §2

[5] = test system: SKBR3 (HER2-overexpressing cells); experiment: MTT cytotoxicity study; format: cell-based, human; conditions: then 48 hours, mean ± SD, n = 3
Description: as §1, §2

[6] = Table 3B (719W), liposomes 15 mg/kg, DOX 10 mg/kg

COc1cccc2c1C(=O)c1c(O)c3c(c(O)c1C2=O)C[C@@](O)(C(=O)CO)C[C@@H]3O[C@H]1C[C@H](N)[C@H](O)[C@H](C)O1 [DOX, doxorubicin]
CR (complete regression) ([1]; Table 3A (420W)): 0
TFS (tumor free survivor) ([1]; Table 3A (420W)): 0
TTE (time to reach the end point) ([1]; Table 3A (420W), single i.v. dose on day 11, monitored up to 120 days): 70.4 days
MST (Median survival Time) ([1]; Table 3A (420W), single i.v. dose on day 11 after tumor inoculation, monitored up to 120 days): 69.2 days
TGD (Tumor growth delay) ([1]; Table 3A (420W)): 18%
TTE (time to reach the end point) [1, 6]: 70.4 days
CR (complete regression) [1, 6]: 0
TFS (tumor free survivor) [1, 6]: 0
MST (Median survival Time) ([1]; Table 3B (719W), single i.v. dose, liposomes 15 mg/kg, DOX 10 mg/kg, up to 120 days): 69.2 days
TGD (Tumor growth delay) [1, 6]: 18%
plasma concentration of DOX after intravenous injection [2]: below the detection limit
IC50 ([3]; Table 2A (420W), 3 hours incubation, read-out: IC50 TUBO 3 hours): 150 ± 70 nM
IC50 ([3]; Table 2A (420W), 6 hours incubation, read-out: IC50 TUBO 6 hours): 90 ± 10 nM
IC50 ([3]; Table 2B (719W), 3 h incubation, read-out: IC50 TUBO 3 h): 150 ± 10 nM
IC50 ([3]; Table 2B (719W), 6 h incubation, read-out: IC50 TUBO 6 h): 90 ± 30 nM
IC50 ([4]; Table 2A (420W), 3 hours incubation, read-out: IC50 MDA-MB-231 3 hours): 600 ± 50 nM
IC50 ([4]; Table 2A (420W), 6 hours incubation, read-out: IC50 MDA-MB-231 6 hours): 260 ± 10 nM
IC50 ([4]; Table 2B (719W), 3 h incubation, read-out: IC50 MDA-MB-231 3 h): 600 ± 90 nM
IC50 ([4]; Table 2B (719W), 6 h incubation, read-out: IC50 MDA-MB-231 6 h): 260 ± 40 nM
IC50 ([5]; Table 2A (420W), 3 hours incubation, read-out: IC50 SKBR3 3 hours): 620 ± 20 nM
IC50 ([5]; Table 2A (420W), 6 hours incubation, read-out: IC50 SKBR3 6 hours): 390 ± 50 nM
IC50 ([5]; Table 2B (719W), 3 h incubation, read-out: IC50 SKBR3 3 h): 560 ± 20 nM
IC50 ([5]; Table 2B (719W), 6 h incubation, read-out: IC50 SKBR3 6 h): 240 ± 10 nM
